# Source: patent US10975056B2 (GlaxoSmithKline Intellectual Property Development Limited, priority 2016, dated 2021)
# Read-outs that look alike come from different tables or passages of the source.
# Tests used:
# DNMT1 = DNMT1 (Homo sapiens, UniProt P26358); experiment: DNMT1 biochemical activity, breaklight assay and/or SPA assay
# [1] = system: erythroid progenitor cells (EPCs); experiment: Fetal hemoglobin (HbF) ELISA in day 7 erythroid progenitor cells; assay type: cell-based, human; settings: Homo sapiens, Erythroid progenitor cell, HbF ELISA, day 7 EPCs, 5 days; read-out: EPC ELISA (pEC50 category) (converted);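 note: for fetal hemoglobin induction normalized to vehicle-treated cells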
# In short: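 CD34+-derived EPCs, 1,000 cells/well, rhEPO 3 U/mL; Compound A 22-pt series, […]; 5 d, 37° C, 5% CO2. Freeze-thaw lysis, anti-HbF capture + HRP anti-HbF, TMB, OD450. Normalized to DMSO wells.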
# [2] = binned activity in either the breaklight or the SPA assay
# [3] = binned activity in either the breaklight or the SPA assay, read-out: DNMT1 BioChemical (pIC50 category) (converted)
# DNMT1, sequence (P26358 whole entry, looked up): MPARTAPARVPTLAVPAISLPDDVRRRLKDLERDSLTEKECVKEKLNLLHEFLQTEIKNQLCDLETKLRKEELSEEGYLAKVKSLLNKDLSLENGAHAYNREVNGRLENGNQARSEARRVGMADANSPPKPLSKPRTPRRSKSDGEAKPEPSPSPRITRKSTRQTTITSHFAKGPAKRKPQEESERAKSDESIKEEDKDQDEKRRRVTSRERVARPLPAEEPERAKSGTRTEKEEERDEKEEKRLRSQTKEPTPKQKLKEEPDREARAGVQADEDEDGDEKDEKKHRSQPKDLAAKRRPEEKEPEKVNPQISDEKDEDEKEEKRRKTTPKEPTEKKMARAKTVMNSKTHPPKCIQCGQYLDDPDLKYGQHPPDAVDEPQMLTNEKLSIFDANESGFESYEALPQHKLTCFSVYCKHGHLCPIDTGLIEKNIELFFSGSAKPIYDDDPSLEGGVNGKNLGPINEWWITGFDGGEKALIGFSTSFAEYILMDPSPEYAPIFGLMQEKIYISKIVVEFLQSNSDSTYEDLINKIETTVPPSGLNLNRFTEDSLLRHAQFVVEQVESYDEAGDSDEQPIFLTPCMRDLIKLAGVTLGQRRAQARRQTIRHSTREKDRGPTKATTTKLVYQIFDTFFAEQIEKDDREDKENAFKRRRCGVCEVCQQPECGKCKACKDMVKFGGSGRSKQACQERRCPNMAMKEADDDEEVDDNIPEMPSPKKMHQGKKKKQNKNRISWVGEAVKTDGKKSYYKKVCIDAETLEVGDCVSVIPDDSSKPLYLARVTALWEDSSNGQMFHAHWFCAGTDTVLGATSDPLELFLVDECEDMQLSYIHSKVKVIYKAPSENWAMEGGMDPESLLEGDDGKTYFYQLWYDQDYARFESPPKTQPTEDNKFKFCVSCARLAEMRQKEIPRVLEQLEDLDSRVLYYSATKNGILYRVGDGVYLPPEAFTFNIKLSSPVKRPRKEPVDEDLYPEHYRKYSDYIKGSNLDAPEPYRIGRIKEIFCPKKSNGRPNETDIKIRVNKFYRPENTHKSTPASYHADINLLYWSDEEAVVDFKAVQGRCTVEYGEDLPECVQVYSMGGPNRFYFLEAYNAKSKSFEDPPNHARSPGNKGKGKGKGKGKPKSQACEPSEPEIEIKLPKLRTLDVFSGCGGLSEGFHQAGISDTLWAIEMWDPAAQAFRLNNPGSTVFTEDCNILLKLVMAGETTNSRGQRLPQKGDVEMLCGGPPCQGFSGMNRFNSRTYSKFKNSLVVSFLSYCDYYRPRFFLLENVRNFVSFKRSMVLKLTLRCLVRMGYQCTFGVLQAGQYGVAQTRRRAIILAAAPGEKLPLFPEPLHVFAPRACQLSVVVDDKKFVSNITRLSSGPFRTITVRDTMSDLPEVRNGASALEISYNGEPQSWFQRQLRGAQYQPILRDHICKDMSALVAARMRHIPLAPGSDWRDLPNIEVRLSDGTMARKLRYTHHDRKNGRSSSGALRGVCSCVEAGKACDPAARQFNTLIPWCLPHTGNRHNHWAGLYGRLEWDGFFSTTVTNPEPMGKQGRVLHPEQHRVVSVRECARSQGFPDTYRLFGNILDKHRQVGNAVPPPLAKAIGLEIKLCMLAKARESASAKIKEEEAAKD
SMILES,DNMT1 BioChemical (pIC50 category) (DNMT1; [2]),EC50 [1] [nM],"average pIC50 against DNMT1 (DNMT1; breaklight assay and/or SPA assay, repeated experimental runs)","IC50 (DNMT1; breaklight assay and/or SPA assay, repeated experimental runs, read-out: average pIC50 against DNMT1 (converted)) [nM]",IC50 (DNMT1; [3]) [nM]
CCc1c(C#N)c(SC(C(N)=O)c2c(F)cccc2F)nc(N2CC[C@H](O)C2)c1C#N (stereo partly shown) [Example 428],,316 to 1000,,,316 to 1000
"CCc1c(C#N)c(SC(C(N)=O)c2ccccc2)nc(N2CCC(N3CCC[C@H]3CO)CC2)c1C#N (stereo partly drawn) [Example 441, 2-((3,5-dicyano-4-ethyl-6-(4-((S)-2-(hydroxymethyl)pyrrolidin-1-yl)piperidin-1-yl)pyridin-2-yl)thio)-2-phenylacetamide]",D (Category D: ≥6.5),< 316,,,
"CCc1c(C#N)c(SC(C(N)=O)c2ccccc2)nc(N2CCC(N(C)CCO)CC2)c1C#N (stereo not shown) [Example 443, 2-((3,5-dicyano-4-ethyl-6-(4-((2-hydroxyethyl)(methyl)amino)piperidin-1-yl)pyridin-2-yl)thio)-2-phenylacetamide]",D (Category D: ≥6.5),< 316,,,
"CCc1c(C#N)c(SC(C(N)=O)c2ccccc2)nc(N2CCC(N(C)CC(C)(C)O)CC2)c1C#N (stereo not shown) [Example 444, 2-((3,5-dicyano-4-ethyl-6-(4-((2-hydroxy-2-methylpropyl)(methyl)amino)piperidin-1-yl)pyridin-2-yl)thio)-2-phenylacetamide]",D (Category D: ≥6.5),< 316,,,
"CCc1c(C#N)c(SC(C(N)=O)c2ccccc2)nc(N2CCC(CN3CCCC3)CC2)c1C#N (stereo not shown) [Example 445, 2-((3,5-dicyano-4-ethyl-6-(4-(pyrrolidin-1-ylmethyl)piperidin-1-yl)pyridin-2-yl)thio)-2-phenylacetamide]",D (Category D: ≥6.5),< 316,,,
"CCc1c(C#N)c(SC(C(N)=O)c2ccccc2)nc(N2CCC(NCC(C)(C)OC)CC2)c1C#N (stereo not shown) [Example 446, 2-((3,5-dicyano-4-ethyl-6-(4-((2-methoxy-2-methylpropyl)amino)piperidin-1-yl)pyridin-2-yl)thio)-2-phenylacetamide]",D (Category D: ≥6.5),< 316,,,
"CCc1c(C#N)c(SC(C(N)=O)c2ccccc2)nc(N2CCC(NCC(C)(C)O)CC2)c1C#N (stereo not shown) [Example 447, 2-((3,5-dicyano-4-ethyl-6-(4-((2-hydroxy-2-methylpropyl)amino)piperidin-1-yl)pyridin-2-yl)thio)-2-phenylacetamide]",D (Category D: ≥6.5),< 316,,,

# Second part, the compound after the results:
DNMT1 BioChemical (pIC50 category) (DNMT1; [2]),EC50 [1] [nM],"average pIC50 against DNMT1 (DNMT1; breaklight assay and/or SPA assay, repeated experimental runs)","IC50 (DNMT1; breaklight assay and/or SPA assay, repeated experimental runs, read-out: average pIC50 against DNMT1 (converted)) [nM]",IC50 (DNMT1; [3]) [nM],SMILES
D (Category D: ≥6.5),316 to 1000,,,,"CCc1c(C#N)c(S[C@@H](C(N)=O)c2ccc(Cl)cc2)nc(N2CC[C@H](O)C2)c1C#N [Example 424, (R)-2-(4-chlorophenyl)-2-((3,5-dicyano-4-ethyl-6-((S)-3-hydroxypyrrolidin-1-yl)pyridin-2-yl)thio)acetamide]"
D (Category D: ≥6.5),316 to 1000,> 6.5,158,,CCc1c(C#N)c(S[C@@H](C(N)=O)c2ccc(F)cc2)nc(N2CC[C@H](O)C2)c1C#N [Example 425]
,> 31600,,,1000 to 31600,"CCc1c(C#N)c(S[C@@H](C(N)=O)c2ccc(F)cc2)nc(N2CC[C@H](OP(=O)(O)O)C2)c1C#N [Example 426, (S)-1-(6-(((R)-2-amino-1-(4-fluorophenyl)-2-oxoethyl)thio)-3,5-dicyano-4-ethylpyridin-2-yl)pyrrolidin-3-yl dihydrogen phosphate]"
D (Category D: ≥6.5),316 to 1000,,,,"CCc1c(C#N)c(SC(C(N)=O)c2ccc(F)cc2)nc(N2CC[C@H](O)C2)c1C#N (stereo partly drawn) [Example 427, 2-((3,5-dicyano-4-ethyl-6-((S)-3-hydroxypyrrolidin-1-yl)pyridin-2-yl)thio)-2-(4-fluorophenyl) acetamide]"
,316 to 1000,,,316 to 1000,CCc1c(C#N)c(SC(C(N)=O)c2cccc(F)c2F)nc(N2CC[C@H](O)C2)c1C#N (stereo partly shown) [Example 429]
D (Category D: ≥6.5),316 to 1000,,,,CCc1c(C#N)c(SC(C(N)=O)c2ccc(F)cc2F)nc(N2CC[C@H](O)C2)c1C#N (stereo partly shown) [Example 430]
